Data on 5 compounds can be found in article PMC3899824 (Investigational new drugs, 2013).

Assay [1] concerns MM.1S multiple myeloma cells. The assay is described as follows: Apoptosis by AnnexinV/PI flow cytometry, MM.1S. The assay is classed as cell-based, human. (In general: A flow cytometer gives signals particle by particle.)
For assay [2], the system named is 8226/S multiple myeloma cells. The assay is described as follows: Apoptosis by AnnexinV/PI flow cytometry, 8226/S. Type of assay: cell-based, human.
Assay [3] has as its system MM.1S multiple myeloma cells. The conditions noted are these: colcemid-treated, concentration not given.
Assay [4] deals with 8226/S multiple myeloma cells. The conditions noted are these: colcemid-treated, concentration not given.
The next assay has as its system tubulin. The assay is described as follows: Cell-free tubulin polymerization assay. The assay is classed as biochemical. The conditions noted are these: 10 μM, 60m at 340 nm.
In another assay the test system is 8226/Dox40 cell line. The conditions noted are these: no reference given; cited from earlier work.
Setting [5] is: 5 μM pan-caspase inhibitor 30m before 200 nM PC-046 24h.
The mark [6] stands for this setting: 5 μM caspase 8 inhibitor 30m before 200 nM PC-046 24h.

*: point of attachment. Cbz = O=C(OCc1ccccc1)*; CH2F = FC*

For the compound `CC(C)[C@H](NC(=O)c1ccc2ccccc2n1)C(=O)N[C@@H](CC(=O)O)C(=O)COc1c(F)cccc1F` [Q-VD-OPh], the AnnexinV-positive cells is 12.8% in assay [1] (setting [5]) and 13.5% in assay [2] (setting [5]).

In the case of `CN[C@H]1CCc2cc(OC)c(OC)c(OC)c2-c2ccc(OC)c(=O)cc21` [colcemid, reference compound], the “% positive histone H3 cells, mean (SEM)” value in assay [3] is listed as 12.54 (0.73) %; in assay [4], 39.40 (1.48) %.

Regarding `CC(=O)O[C@H]1C(=O)[C@@]2(C)[C@H]([C@H](OC(=O)c3ccccc3)[C@]3(O)C[C@H](OC(=O)[C@H](O)[C@@H](NC(=O)c4ccccc4)c4ccccc4)C(C)=C1C3(C)C)[C@]1(OC(C)=O)CO[C@@H]1C[C@@H]2O` [paclitaxel], the “effect on tubulin polymerization” value with tubulin is “stabilized tubulin polymerization”.

On to `CC[C@]1(O)C[C@H]2CN(CCc3c([nH]c4ccccc34)[C@@](C(=O)OC)(c3cc4c(cc3OC)N(C=O)[C@H]3[C@@](O)(C(=O)OC)[C@H](OC(C)=O)[C@]5(CC)C=CCN6CC[C@]43[C@@H]65)C2)C1` [vincristine], for which the “effect on tubulin polymerization” value in the assay with tubulin was “a reduction in the amount of tubulin polymer formed”. In addition, the “resistance conferred by ABCB1 (Pgp/MDR1)” value in the assay on 8226/Dox40 cell line is listed as “approximately 200 fold”.

As for Cbz-IETD-CH2F, the AnnexinV-positive cells in assay [1] (setting [6]) came to 32.6%; in assay [2] (setting [6]), 25.1%.
